Source: article PMC11284800 (Journal of Medicinal Chemistry, 2024)
Like-named read-outs stand apart in the source and are kept apart here.

Experiments:
hCB1R = hCB1R (Homo sapiens, UniProt P21554); experiment: [3H]CP55,940 displacement assay on CHO membranes, CB1R; format: binding; design: host or cells: CHO-K1 (CHOK1hCB1_bgal); details: for Ki: [3H]CP55,940 displacement; for hCB1R % displacement at 10 µM: [3H]CP55,940 displacement at 10 µM compound, ± SEM; for Binding to CB1R (in words): radioligand binding assay
hCB1R, sequence (P21554 whole entry): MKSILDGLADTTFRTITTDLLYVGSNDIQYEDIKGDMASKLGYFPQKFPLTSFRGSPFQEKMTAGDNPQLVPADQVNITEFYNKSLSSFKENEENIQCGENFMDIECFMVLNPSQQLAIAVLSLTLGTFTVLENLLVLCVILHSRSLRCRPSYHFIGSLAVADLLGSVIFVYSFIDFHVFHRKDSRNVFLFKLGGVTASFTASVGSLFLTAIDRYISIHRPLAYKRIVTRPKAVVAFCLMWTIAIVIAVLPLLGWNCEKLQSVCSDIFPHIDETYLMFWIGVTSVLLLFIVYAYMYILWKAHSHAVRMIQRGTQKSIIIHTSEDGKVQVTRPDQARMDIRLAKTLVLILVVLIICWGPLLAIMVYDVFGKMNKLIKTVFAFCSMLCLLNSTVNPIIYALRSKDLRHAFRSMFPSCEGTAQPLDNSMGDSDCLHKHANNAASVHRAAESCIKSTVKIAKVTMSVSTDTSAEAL

human CB2R = target: T1, human CB2R (Homo sapiens, UniProt P34972); experiment: [3H]CP55,940 displacement assay on CHO membranes, CB2R; format: binding; details: for Ki: [3H]CP55,940 displacement; for hCB2R % displacement at 10 µM: [3H]CP55,940 displacement at 10 µM compound, ± SEM; for Binding to CB2R (in words): radioligand binding assay
T1 construct: host or cells: CHO-K1 (CHOK1hCB2_bgal)
T1 sequence (P34972 whole entry): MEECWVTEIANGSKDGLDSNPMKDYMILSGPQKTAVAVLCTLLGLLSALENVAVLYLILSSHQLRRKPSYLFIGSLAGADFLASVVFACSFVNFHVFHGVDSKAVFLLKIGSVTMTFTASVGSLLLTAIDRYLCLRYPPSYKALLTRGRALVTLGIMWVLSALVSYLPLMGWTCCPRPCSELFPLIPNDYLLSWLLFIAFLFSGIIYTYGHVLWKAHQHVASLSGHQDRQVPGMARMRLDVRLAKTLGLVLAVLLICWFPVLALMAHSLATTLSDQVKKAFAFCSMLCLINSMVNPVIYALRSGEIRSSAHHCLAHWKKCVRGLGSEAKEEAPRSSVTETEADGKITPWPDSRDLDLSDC

[1] = Photophysical characterization in PBS; format: physicochemical; details: PBS pH 7.4
[2] = CHO membranes stably expressing human CB1R, means of three experiments, read-out: hCB1R Ki
[3] = CHO membranes stably expressing human CB2R, means of three experiments, read-out: hCB2R Ki
[4] = hCB1R Ki, CHO membranes stably expressing human CB1R, means of three experiments
[5] = hCB2R Ki, CHO membranes stably expressing human CB2R, means of three experiments
[6] = read-out: hCB1R Ki, CHO membranes stably expressing human CB1R, means of three experiments
[7] = read-out: hCB2R Ki, CHO membranes stably expressing human CB2R, means of three experiments

Structure (SMILES)	Ki (hCB1R; [2]) [nM]	Ki (human CB2R; [3]) [nM]	Abs (absorbance maximum) [1] [nm]	Em (emission maximum) [1] [nm]	QY (quantum yield) [1] [%]	Ki (hCB1R; [4]) [nM]	Ki (human CB2R; [5]) [nM]	hCB1R % displacement at 10 µM (hCB1R) [%]	further results
CCC(CC)(NC(=O)c1cc(-c2cc(C(F)(F)F)ccc2C(F)(F)F)n(C[C@H]2CCCO2)c1C)C(=O)NCCOCCOCCNc1ccc([N+](=O)[O-])c2nsnc12 [Compound 51, (R)-5-(2,5-Bis(trifluoromethyl)phenyl)-2-methyl-N-(3-((2-(2-(2-((7-nitrobenzo[c][1,2,5]thiadiazol-4-yl)amino)ethoxy)ethoxy)ethyl)carbamoyl)pentan-3-yl)-1-((tetrahydrofuran-2-yl)methyl)-1H-pyrrole-3-carboxamide]	316	493	465	550	0.30	–	–	–	–
CCC(CC)(NC(=O)c1cnc(OCC2CC2)c(-c2ccc(F)cc2)c1)C(=O)NCCOCCOCCNC(=O)OC(C)(C)C [Compound 25, tert-Butyl (1-(6-(Cyclopropylmethoxy)-5-(4-fluorophenyl)pyridin-3-yl)-3,3-diethyl-1,4-dioxo-8,11-dioxa-2,5-diazatridecan-13-yl)carbamate]	–	–	–	–	–	3060	818	–	Ki (hCB1R; hCB1R pKi ± SEM, CHO membranes): 3020 nM
CCC(CC)(NC(=O)c1cc(-c2cc(C(F)(F)F)ccc2C(F)(F)F)n(C[C@H]2CCCO2)c1C)C(=O)NCCOCCOCCNc1ccc([N+](=O)[O-])c2n[nH]nc12 [Compound 52, (R)-5-(2,5-Bis(trifluoromethyl)phenyl)-2-methyl-N-(3-((2-(2-(2-((7-nitro-2H-benzo[d][1,2,3]triazol-4-yl)amino)ethoxy)ethoxy)ethyl)carbamoyl)pentan-3-yl)-1-((tetrahydrofuran-2-yl)methyl)-1H-pyrrole-3-carboxamide]	225	1620	425	495	0.10	–	–	–	–
CCC(CC)(NC(=O)c1nn(-c2ccc(Cl)cc2Cl)c2c1CCCc1cc(Cl)ccc1-2)C(=O)NCCOCCOCCNC(=O)c1ccc2c(c1)C(=O)OC21c2ccc(N(C)C)cc2Oc2cc(N(C)C)ccc21 [Compound 33]	–	–	520	585	11.10	–	–	-5 ± 1	Binding to CB1R (in words) (hCB1R): did not bind; Ki (hCB1R; [6]): > 10000 nM; hCB2R % displacement at 10 µM (human CB2R): 21 ± 3%; Binding to CB2R (in words) (human CB2R): did not bind; Ki (human CB2R; [7]): > 10000 nM
CCC(CC)(NC(=O)c1cc(-c2cc(C(F)(F)F)ccc2C(F)(F)F)n(C[C@H]2CCCO2)c1C)C(=O)NCCOCCOCCOCCNC(=O)OC(C)(C)C [Compound 22c, tert-Butyl (R)-(1-(5-(2,5-Bis(trifluoromethyl)phenyl)-2-methyl-1-((tetrahydrofuran-2-yl)methyl)-1H-pyrrol-3-yl)-3,3-diethyl-1,4-dioxo-8,11,14-trioxa-2,5-diazahexadecan-16-yl)carbamate]	1220	> 10000	–	–	–	–	–	–	hCB2R % displacement at 10 µM (human CB2R): 23 ± 5%
CCC(CC)(NC(=O)c1nn(-c2ccc(Cl)cc2Cl)c2c1CCCc1cc(Cl)ccc1-2)C(=O)NCCOCCOCCNc1ccc([N+](=O)[O-])c2nonc12 [Compound 32, 8-Chloro-1-(2,4-dichlorophenyl)-N-(3-((2-(2-(2-((7-nitrobenzo[c][1,2,5]oxadiazol-4-yl)amino)ethoxy)ethoxy)ethyl)carbamoyl)pentan-3-yl)-1,4,5,6-tetrahydrobenzo[6,7]cyclohepta[1,2-c]pyrazole-3-carboxamide]	–	–	485	570	1.30	> 10000	309	35 ± 6	–
CCC(CC)(NC(=O)c1cnc(OCCOC)c(-c2ccc(Cl)cc2)n1)C(=O)NCCOCCOCCNC(=O)OC(C)(C)C [Compound 26, tert-Butyl (1-(6-(4-Chlorophenyl)-5-(2-methoxyethoxy)pyrazin-2-yl)-3,3-diethyl-1,4-dioxo-8,11-dioxa-2,5-diazatridecan-13-yl)carbamate]	> 10000	701	–	–	–	–	–	32 ± 6	–
CCC(CC)(NC(=O)c1nn(Cc2cccc(F)c2)c2ccccc12)C(=O)NCCOCCOCCNC(=O)OC(C)(C)C [Compound 27, tert-Butyl (3,3-Diethyl-1-(1-(3-fluorobenzyl)-1H-indazol-3-yl)-1,4-dioxo-8,11-dioxa-2,5-diazatridecan-13-yl)carbamate]	–	–	–	–	–	> 10000	108	48 ± 2	–
CCC(CC)(NC(=O)c1nn(-c2ccc(Cl)cc2Cl)c(-c2ccc(Cl)cc2)c1C)C(=O)NCCOCCNC(=O)OC(C)(C)C [Compound 23a, tert-Butyl (2-(2-(2-(5-(4-Chlorophenyl)-1-(2,4-dichlorophenyl)-4-methyl-1H-pyrazole-3-carboxamido)-2-ethylbutanamido)ethoxy)ethyl)carbamate]	–	–	–	–	–	–	1590	–	Ki (hCB1R; hCB1R pKi ± SEM, CHO membranes): 37.2 nM
CCC(CC)(NC(=O)c1cc(-c2cc(C(F)(F)F)ccc2C(F)(F)F)n(C[C@H]2CCCO2)c1C)C(=O)NCCOCCNC(=O)OC(C)(C)C [Compound 22a, tert-Butyl (R)-(2-(2-(2-(5-(2,5-Bis(trifluoromethyl)phenyl)-2-methyl-1-((tetrahydrofuran-2-yl)methyl)-1H-pyrrole-3-carboxamido)-2-ethylbutanamido)ethoxy)ethyl)carbamate]	1420	> 10000	–	–	–	–	–	–	hCB2R % displacement at 10 µM (human CB2R): 20 ± 3%
CCC(CC)(NC(=O)c1nn(-c2ccc(Cl)cc2Cl)c(-c2ccc(Cl)cc2)c1C)C(=O)NCCOCCOCCOCCOCCNC(=O)OC(C)(C)C [Compound 23d, tert-Butyl (1-(5-(4-Chlorophenyl)-1-(2,4-dichlorophenyl)-4-methyl-1H-pyrazol-3-yl)-3,3-diethyl-1,4-dioxo-8,11,14,17-tetraoxa-2,5-diazanonadecan-19-yl)carbamate]	–	–	–	–	–	603	2120	–	–
CCC(CC)(NC(=O)c1cnc(OCC2CC2)c(-c2ccc(F)cc2)c1)C(=O)NCCOCCOCCNc1ccc([N+](=O)[O-])c2nonc12 [Compound 40, 6-(Cyclopropylmethoxy)-5-(4-fluorophenyl)-N-(3-((2-(2-(2-((7-nitrobenzo[c][1,2,5]oxadiazol-4-yl)amino)ethoxy)ethoxy)ethyl)carbamoyl)pentan-3-yl)nicotinamide]	–	–	465	550	1.30	> 10000	481	34 ± 1	–
CCC(CC)(NC(=O)c1cnc(OCC2CC2)c(-c2ccc(F)cc2)c1)C(=O)NCCOCCOCCNC(=O)c1ccc2c(c1)C(=O)OC21c2ccc(N(C)C)cc2Oc2cc(N(C)C)ccc21 [Compound 41]	> 10000	> 10000	560	585	47.40	–	–	9 ± 1	Binding to CB1R (in words) (hCB1R): did not bind; hCB2R % displacement at 10 µM (human CB2R): 27 ± 3%; Binding to CB2R (in words) (human CB2R): did not bind
CCC(CC)(NC(=O)c1nn(Cc2cccc(F)c2)c2ccccc12)C(=O)NCCOCCOCCNc1ccc([N+](=O)[O-])c2nonc12 [Compound 36, 1-(3-Fluorobenzyl)-N-(3-((2-(2-(2-((7-nitrobenzo[c][1,2,5]oxadiazol-4-yl)amino)ethoxy)ethoxy)ethyl)carbamoyl)pentan-3-yl)-1H-indazole-3-carboxamide]	–	–	475	565	1.50	1170	79	–	–
CCC(CC)(NC(=O)c1nn(-c2ccc(Cl)cc2Cl)c2c1CCCc1cc(Cl)ccc1-2)C(=O)NCCOCCOCCNC(=O)OC(C)(C)C [Compound 24, tert-Butyl (1-(8-Chloro-1-(2,4-dichlorophenyl)-1,4,5,6-tetrahydrobenzo[6,7]cyclohepta[1,2-c]pyrazol-3-yl)-3,3-diethyl-1,4-dioxo-8,11-dioxa-2,5-diazatridecan-13-yl)carbamate]	–	–	–	–	–	> 10000	776	28 ± 3	–
CCC(CC)(NC(=O)c1cnc(OCCOC)c(-c2ccc(Cl)cc2)n1)C(=O)NCCOCCOCCNc1ccc([N+](=O)[O-])c2nonc12 [Compound 34, 6-(4-Chlorophenyl)-5-(2-methoxyethoxy)-N-(3-((2-(2-(2-((7-nitrobenzo[c][1,2,5]oxadiazol-4-yl)amino)ethoxy)ethoxy)ethyl)carbamoyl)pentan-3-yl)pyrazine-2-carboxamide]	> 10000	–	480	545	2.00	–	–	32 ± 6	Ki (human CB2R; CHO membranes, read-out: hCB2R pKi ± SEM (converted)): 708 nM
CCC(CC)(NC(=O)c1nn(-c2ccc(Cl)cc2Cl)c(-c2ccc(Cl)cc2)c1C)C(=O)NCCOCCOCCOCCNC(=O)OC(C)(C)C [Compound 23c, tert-Butyl (1-(5-(4-Chlorophenyl)-1-(2,4-dichlorophenyl)-4-methyl-1H-pyrazol-3-yl)-3,3-diethyl-1,4-dioxo-8,11,14-trioxa-2,5-diazahexadecan-16-yl)carbamate]	–	–	–	–	–	397	2120	–	–
CCC(CC)(NC(=O)c1nn(-c2ccc(Cl)cc2Cl)c(-c2ccc(Cl)cc2)c1C)C(=O)NCCOCCOCCNC(=O)c1ccc2c(c1)C(=O)OC21c2ccc(N(C)C)cc2Oc2cc(N(C)C)ccc21 [Compound 31]	–	–	520	585	17.50	–	–	37 ± 5	Ki (hCB1R; [6]): > 10000 nM; hCB2R % displacement at 10 µM (human CB2R): 32 ± 6%; Ki (human CB2R; [7]): > 10000 nM
